Each molecule was assayed against human SSTR2 (Homo sapiens (Human), UniProt P30874) (assay: Human SSTR2 intracellular cAMP functional assay for agonists (HTRF)). Details: not given.
Assay type: cell-based
Method: Functional Assay for SSTR2 Agonists
General overview: All five SSTR subtypes are Gi coupled G-protein coupled receptors (GPCRs) that lead to decreases in intracellular cyclic AMP (cAMP) when activated by an agonist. […] Human SSTR2 intracellular cAMP assay is described below. The human SSTR1, 3, 4 and 5 assays follow the same protocol of SSTR2.
The cells are cultured at 37° C., 5% CO2 and 95% humidity. […] The cells are incubated for 20 minutes at 37° C. […] The cells are treated with 50 μL of lysis buffer (HRTF cAMP kit, Cisbio). […] The time-resolved fluorescent signal is read with a Tecan M1000Pro multiplate reader. The intracellular cAMP concentrations are calculated by regression to a standard curve and are plotted vs. the concentration of the compounds of the invention and the EC50 of the compounds are calculated using standard methods. All data manipulations are in GraphPad Prism v6.

Sequence of human SSTR2 (P30874 whole entry): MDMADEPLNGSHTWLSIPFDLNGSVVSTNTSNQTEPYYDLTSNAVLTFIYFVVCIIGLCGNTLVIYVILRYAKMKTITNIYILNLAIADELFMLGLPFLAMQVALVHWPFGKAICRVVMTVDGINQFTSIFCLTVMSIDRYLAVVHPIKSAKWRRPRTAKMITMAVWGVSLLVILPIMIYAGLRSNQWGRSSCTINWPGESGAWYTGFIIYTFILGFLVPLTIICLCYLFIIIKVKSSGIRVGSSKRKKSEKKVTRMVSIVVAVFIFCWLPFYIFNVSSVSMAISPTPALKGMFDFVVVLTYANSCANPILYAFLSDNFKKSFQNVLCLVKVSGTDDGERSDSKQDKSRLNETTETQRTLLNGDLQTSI

SMILES | EC50
COCCOCOc1c(C#N)cccc1-c1ccc2ncc(-c3cc(F)cc(F)c3)c(N3CCC(N)CC3)c2c1 [2-87, 3-[4-(4-aminopiperidin-1-yl)-3-(3,5-difluorophenyl)quinolin-6-yl]-2-[(2-methoxyethoxy)methoxy]benzonitrile] | 10 to 100 nM
N#Cc1cccc(-c2ccc3ncc(-c4cc(F)cc(CN5CC(F)(F)C5)c4)c(N4CCC(N)CC4)c3c2)c1O [2-71, 3-[4-(4-aminopiperidin-1-yl)-3-{3-[(3,3-difluoroazetidin-1-yl)methyl]-5-fluorophenyl}quinolin-6-yl]-2-hydroxybenzonitrile] | 100 to 1000 nM
Cc1cc(F)cc(-c2cnc3ccc(-c4cc(F)cc(C#N)c4O)cc3c2N2CC(CNCC(C)O)C2)c1 (centres unmarked) [2-51, 5-fluoro-3-[3-(3-fluoro-5-methylphenyl)-4-(3-{[(2-hydroxypropyl)amino]methyl}azetidin-1-yl)quinolin-6-yl]-2-hydroxybenzonitrile] | 10 to 100 nM
Cc1cc(C)cc(-c2nnc3cc(Cl)c(Cl)cc3c2N2CCC(N)CC2)c1 [1-3, 1-[6,7-dichloro-3-(3,5-dimethylphenyl)cinnolin-4-yl]piperidin-4-amine] | 100 to 1000 nM
N#Cc1cccc(-c2ccc3ncc(-c4cc(F)cc(F)c4)c(N4CCC(N)CC4)c3c2)c1OCCCC(=O)O [2-57, 4-{2-[4-(4-aminopiperidin-1-yl)-3-(3,5-difluorophenyl)quinolin-6-yl]-6-cyanophenoxy}butanoic acid] | 10 to 100 nM

Same assay, conditions: CHO-K1 cells stably expressing human SSTR2; NKH477-stimulated cAMP; read-out: EC50 (inhibition of cAMP activities via human SST2R)

SMILES | EC50
CONC(=O)Nc1ncccc1-c1ccc2ncc(-c3cc(C)cc(F)c3)c(N3CCC(N)CC3)c2c1 [2-226, 1-{3-[4-(4-aminopiperidin-1-yl)-3-(3-fluoro-5-methylphenyl)quinolin-6-yl]pyridin-2-yl}-3-methoxyurea] | < 10 nM
NC1CCN(c2c(-c3cc(F)cc(F)c3)cnc3ccc(-c4c(O)c(Cl)cc(F)c4F)cc23)CC1 [2-134, 2-[4-(4-aminopiperidin-1-yl)-3-(3,5-difluorophenyl)quinolin-6-yl]-6-chloro-3,4-difluorophenol] | < 10 nM
Cc1ccnc(-c2ccc3ncc(-c4cc(F)cc(F)c4)c(N4CC[C@H]5NCCO[C@@H]5C4)c3c2)c1N (relative stereo) [2-247, 2-{4-[trans-octahydro-1H-pyrido[3,4-b]morpholin-6-yl]-3-(3,5-difluorophenyl)quinolin-6-yl}-4-methylpyridin-3-amine] | < 10 nM
COCCOc1c(C#N)cc(F)cc1-c1ccc2ncc(-c3cc(C)cc(F)c3)c(N3CC[C@H](N)[C@H](O)C3)c2c1 (relative stereo) [2-220, cis-3-{4-[4-amino-3-hydroxypiperidin-1-yl]-3-(3-fluoro-5-methylphenyl)quinolin-6-yl}-5-fluoro-2-(2-methoxyethoxy)benzonitrile] | < 10 nM
N#Cc1cccc(-c2ccc3ncc(-c4cc(F)cc(F)c4)c(N4CCC(N)CC4)c3c2)c1 [2-5, 3-[4-(4-aminopiperidin-1-yl)-3-(3,5-difluorophenyl)quinolin-6-yl]benzonitrile] | < 10 nM
CCCNCC1CN(c2c(-c3cc(C)cc(F)c3)cnc3ccc(-c4cccc(C#N)c4O)cc23)C1 [2-42, 3-[3-(3-fluoro-5-methylphenyl)-4-{3-[(propylamino)methyl]azetidin-1-yl}quinolin-6-yl]-2-hydroxybenzonitrile] | < 10 nM
NC1CCN(c2c(-c3cc(F)cc(F)c3)cnc3ccc(-c4c(O)c(F)cc(F)c4F)cc23)CC1 [2-150, 2-[4-(4-aminopiperidin-1-yl)-3-(3,5-difluorophenyl)quinolin-6-yl]-3,4,6-trifluorophenol] | < 10 nM
Cc1cc(F)cc(-c2nnc3ccc(-c4ccc5[nH]c(=O)[nH]c5c4)cc3c2N2CCC(N)CC2)c1 [1-16, 5-[4-(4-aminopiperidin-1-yl)-3-(3-fluoro-5-methylphenyl)cinnolin-6-yl]-2,3-dihydro-1H-1,3-benzodiazol-2-one] | < 10 nM
Oc1ncc(F)cc1-c1ccc2ncc(-c3cc(F)cc(F)c3)c(N3CC[C@H]4NCCO[C@@H]4C3)c2c1 (relative stereo) [2-259] | < 10 nM
COCCOc1c(C#N)cccc1-c1ccc2ncc(-c3cc(C)cc(F)c3)c(N3CC[C@@H](N)[C@@H](O)C3)c2c1 (racemic) [2-224, 3-{4-[cis-4-amino-3-hydroxypiperidin-1-yl]-3-(3-fluoro-5-methylphenyl)quinolin-6-yl}-2-(2-methoxyethoxy)benzonitrile] | < 10 nM
Oc1c(F)cncc1-c1ccc2ncc(-c3cc(F)cc(F)c3)c(N3CC[C@H]4NCCO[C@@H]4C3)c2c1 (relative stereo) [2-256] | 10 to 100 nM
CO[C@@H]1CN(c2c(-c3cc(F)cc(F)c3)cnc3ccc(-c4cccc(C#N)c4)cc23)CC[C@H]1N (relative stereo) [2-4, 3-{4-[trans-4-amino-3-methoxypiperidin-1-yl]-3-(3,5-difluorophenyl)quinolin-6-yl}benzonitrile] | < 10 nM
COC(=O)Nc1c(C#N)cc(F)c(F)c1-c1ccc2ncc(-c3cc(F)cc(F)c3)c(N3CCC(N)CC3)c2c1 [2-180, methyl N-{2-[4-(4-aminopiperidin-1-yl)-3-(3,5-difluorophenyl)quinolin-6-yl]-6-cyano-3,4-difluorophenyl}carbamate] | < 10 nM
CONC(=O)Nc1cc(F)cc(-c2ccc3ncc(-c4cc(C)cc(F)c4)c(N4CCC(N)CC4)c3c2)c1 [2-223, 1-{3-[4-(4-aminopiperidin-1-yl)-3-(3-fluoro-5-methylphenyl)quinolin-6-yl]-5-fluorophenyl}-3-methoxyurea] | < 10 nM
CON=Cc1cccc(-c2ccc3ncc(-c4cc(C)cc(F)c4)c(N4CC[C@H]5NCCO[C@@H]5C4)c3c2)c1O (relative stereo) [2-221, 2-{4-[trans-octahydro-1H-pyrido[3,4-b]morpholin-6-yl]-3-(3-fluoro-5-methylphenyl)quinolin-6-yl}-6-[(methoxyimino)methyl]phenol] | < 10 nM
Cc1cc(Cl)cc(-c2nnc3cc(Cl)c(-c4cc(F)cc(C#N)c4O)cc3c2N2CCC(N)CC2)c1 [1-12, 3-[4-(4-aminopiperidin-1-yl)-7-chloro-3-(3-chloro-5-methylphenyl)cinnolin-6-yl]-5-fluoro-2-hydroxybenzonitrile] | < 10 nM
Nc1cc(F)cnc1-c1ccc2ncc(-c3cc(F)cc(F)c3)c(N3CC[C@H]4NCCO[C@@H]4C3)c2c1 (relative stereo) [2-265, 2-{4-[trans-octahydro-1H-pyrido[3,4-b]morpholin-6-yl]-3-(3,5-difluorophenyl)quinolin-6-yl}-5-fluoropyridin-3-amine] | < 10 nM
NC(=O)c1cc(F)cc(-c2ccc3nnc(-c4cc(Cl)cc(Cl)c4)c(N4CCC(NC5COC5)CC4)c3c2)c1 [1-31, 3-[3-(3,5-dichlorophenyl)-4-{4-[(oxetan-3-yl)amino]piperidin-1-yl}cinnolin-6-yl]-5-fluorobenzamide] | < 10 nM
COC(=O)Nc1c(C#N)cncc1-c1ccc2ncc(-c3cc(F)cc(F)c3)c(N3CCC(N)CC3)c2c1 [2-125, methyl N-{3-[4-(4-aminopiperidin-1-yl)-3-(3,5-difluorophenyl)quinolin-6-yl]-5-cyanopyridin-4-yl}carbamate] | < 10 nM
C#Cc1cncc(-c2ccc3ncc(-c4cc(F)cc(F)c4)c(N4CC[C@H]5OCCN[C@@H]5C4)c3c2)c1N (relative stereo) [2-274, 3-{4-[trans-octahydro-1H-pyrido[3,4-b]morpholin-6-yl]-3-(3,5-difluorophenyl)quinolin-6-yl}-5-ethynylpyridin-4-amine] | < 10 nM
COCOc1c(C#N)cc(F)cc1-c1ccc2ncc(-c3cc(C)cc(F)c3)c(N3CC(CNCCCO)C3)c2c1 [2-53, 5-fluoro-3-[3-(3-fluoro-5-methylphenyl)-4-(3-{[(3-hydroxypropyl)amino]methyl}azetidin-1-yl)quinolin-6-yl]-2-(methoxymethoxy)benzonitrile] | < 10 nM
N#Cc1cc(F)c(F)c(-c2ccc3ncc(-c4cc(F)cc(F)c4)c(N4CCC(N)CC4)c3c2)c1O [2-99, 3-[4-(4-aminopiperidin-1-yl)-3-(3,5-difluorophenyl)quinolin-6-yl]-4,5-difluoro-2-hydroxybenzonitrile] | < 10 nM
Cc1cc(Cl)cc(-c2nnc3ccc(-c4cc(F)c5[nH]c(=O)[nH]c5c4)cc3c2N2CCC(N)CC2)c1 [1-23, 6-[4-(4-aminopiperidin-1-yl)-3-(3-chloro-5-methylphenyl)cinnolin-6-yl]-4-fluoro-2,3-dihydro-1H-1,3-benzodiazol-2-one] | < 10 nM
NC(=O)c1cccc(-c2ccc3ncc(-c4cc(F)cc(F)c4)c(N4CCC(N)CC4)c3c2)c1OC(CO)CO [2-67, 3-[4-(4-aminopiperidin-1-yl)-3-(3,5-difluorophenyl)quinolin-6-yl]-2-[(1,3-dihydroxypropan-2-yl)oxy]benzamide] | < 10 nM
NC(=O)c1cc(F)cc(-c2ccc3nnc(-c4cc(Cl)cc(Cl)c4)c(N4CCC(NCCF)CC4)c3c2)c1 [1-33, 3-[3-(3,5-dichlorophenyl)-4-{4-[(2-fluoroethyl)amino]piperidin-1-yl}cinnolin-6-yl]-5-fluorobenzamide] | < 10 nM
Cc1cc(Cl)cc(-c2nnc3ccc(-c4cc(F)cc5[nH]c(=O)[nH]c45)cc3c2N2CCC(N)CC2)c1 [1-24, 4-[4-(4-aminopiperidin-1-yl)-3-(3-chloro-5-methylphenyl)cinnolin-6-yl]-6-fluoro-2,3-dihydro-1H-1,3-benzodiazol-2-one] | < 10 nM
CCCNCC1CN(c2c(-c3cc(C)cc(F)c3)cnc3ccc(-c4cc(F)c5[nH]c(=O)[nH]c5c4)cc23)C1 [2-55, 4-fluoro-6-[3-(3-fluoro-5-methylphenyl)-4-{3-[(propylamino)methyl]azetidin-1-yl}quinolin-6-yl]-2,3-dihydro-1H-1,3-benzodiazol-2-one] | < 10 nM

— patent US10351547B2, “Somatostatin modulators and uses thereof” (priority 2016, dated 2019)
